Measurements: PMC9095880, “AIMP2-DX2 provides therapeutic interface to control KRAS-driven tumorigenesis” (Nature Communications, 2022)

Biological target: T1, AIMP2 (Homo sapiens, UniProt Q13155)
T1 construct: purified AIMP2, in vitro pull-down
T1 sequence (Q13155 1-320): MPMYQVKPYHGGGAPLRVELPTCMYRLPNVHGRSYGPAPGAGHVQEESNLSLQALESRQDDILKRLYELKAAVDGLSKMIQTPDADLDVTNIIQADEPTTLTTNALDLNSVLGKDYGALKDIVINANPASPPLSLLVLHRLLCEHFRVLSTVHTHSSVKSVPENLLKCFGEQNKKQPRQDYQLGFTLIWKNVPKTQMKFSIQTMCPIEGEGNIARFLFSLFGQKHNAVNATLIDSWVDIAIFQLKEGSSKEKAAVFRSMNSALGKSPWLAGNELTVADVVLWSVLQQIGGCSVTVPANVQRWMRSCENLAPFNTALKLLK
Test: in vitro pull-down with purified AIMP2
Settings: no binding to cellular AIMP2 in immunoprecipitation

## COc1ccc(-c2ccc(CN(C(=O)c3cnc4ccccc4n3)c3ccccc3F)s2)cc1C [BC-DXI-32982]
  in vitro pull-down with purified AIMP2: DXI showed binding to the purified AIMP2 in an in vitro pull-down assay
